Several values for one entry are separate records, joined by “and”; a condition that tells them apart may be missing. Equal entries are not always repeated. Where two headings read alike, the source gives them in different places.
Experiments:
Assay in all cases: in vitro cleavage assay, Aβ40 production by AlphaLISA
Format in all cases: biochemical
[1] = biological target: T1, PS2 P287T γ-secretase complex (Homo sapiens, UniProt P49810, P287T); details: for remaining activity at 0.002 µM / remaining activity at 0.04 µM / remaining activity at 0.2 µM / remaining activity at 1 µM / remaining activity at 10 µM / remaining activity at 20 µM: 4 h
T1 construct: made in house
Procedure: (§1) In total we generated six variants, including single and double residue swapping of Thr281/Leu282 in PS1 with Pro287/Ile288 in PS2, respectively. MRK-560 response to the six PS1/PS2 mutant-containing complexes, each purified to homogeneity, was examined in the in vitro cleavage assay (Fig. 4). All proteins used for the activity assay were sub-cloned, expressed and purified as described. Protein concentration was determined using the Bradford method. […] The cleavage reaction was conducted at 37 °C for 4 h. The cleaved products of these substrates were detected using a monoclonal antibody (1:1000 dilution, CW0299, CWBio) against the C-terminal Myc tag. Aβ40 production was detected using the AlphaLISA assay (PerkinElmer) as described. The IC50 values and the inhibition curves were calculated using Prism 8.0. Statistical analysis of Aβ40 was performed using Prism 8 (GraphPad Software, San Diego, CA, USA). IC50 were determined by a four-parameter logistic regression. The statistical details can be found in Figs. 1, 4 and legends. Data are expressed as mean ± SD.

[2] = biological target: T2, PS1 T281P γ-secretase complex (Homo sapiens, UniProt P49768, T281P); details: for remaining activity at 0.002 µM / remaining activity at 0.01 µM / remaining activity at 0.04 µM / remaining activity at 0.2 µM / remaining activity at 1 µM / remaining activity at 10 µM: 4 h; for remaining activity at 0.002 µM / remaining activity at 0.01 µM / remaining activity at 0.04 µM / remaining activity at 0.2 µM / remaining activity at 1 µM / remaining activity at 10 µM / Caculated Aβ40 production / raw data from α-Lisa reading: PS1 T281P
T2 construct: made in house
Procedure: as §1

[3] = biological target: T3, PS2 PI287-288TL γ-secretase complex (Homo sapiens, UniProt P49810, I288L/P287T); details: for remaining activity at 0.002 µM / remaining activity at 0.04 µM / remaining activity at 0.2 µM / remaining activity at 1 µM / remaining activity at 10 µM / remaining activity at 20 µM: 4 h
T3 construct: made in house
Procedure: as §1

[4] = biological target: T4, PS1 L282I γ-secretase complex (Homo sapiens, UniProt P49768, L282I); details: for remaining activity at 0.002 µM / remaining activity at 0.01 µM / remaining activity at 0.04 µM / remaining activity at 0.2 µM / remaining activity at 1 µM / remaining activity at 10 µM: 4 h; for remaining activity at 0.002 µM / remaining activity at 0.01 µM / remaining activity at 0.04 µM / remaining activity at 0.2 µM / remaining activity at 1 µM / remaining activity at 10 µM / Caculated Aβ40 production / raw data from α-Lisa reading: PS1 L282I
T4 construct: made in house
Procedure: as §1

[5] = MRK-560 2 nM, mean of 3 replicates, read-out: Normalized production (control=1), Mean
[6] = MRK-560 2 nM, replicates, read-out: Normalized production (control=1)
[7] = MRK-560 40 nM, mean of 3 replicates, read-out: Normalized production (control=1), Mean
[8] = MRK-560 40 nM, replicates, read-out: Normalized production (control=1)
[9] = MRK-560 200 nM, mean of 3 replicates, read-out: Normalized production (control=1), Mean
[10] = MRK-560 200 nM, replicates, read-out: Normalized production (control=1)
[11] = MRK-560 1 μM, mean of 3 replicates, read-out: Normalized production (control=1), Mean
[12] = MRK-560 1 μM, replicates, read-out: Normalized production (control=1)
[13] = MRK-560 10 μM, mean of 3 replicates, read-out: Normalized production (control=1), Mean
[14] = MRK-560 10 μM, replicates, read-out: Normalized production (control=1)
[15] = MRK-560 10 nM, mean of 3 replicates, read-out: Normalized production (control=1), Mean
[16] = MRK-560 10 nM, replicates, read-out: Normalized production (control=1)
[17] = PS2 PI 287 288 TL, MRK-560 2 nM, replicates
[18] = PS2 PI 287 288 TL, MRK-560 40 nM, replicates
[19] = PS2 PI 287 288 TL, MRK-560 200 nM, replicates
[20] = PS2 PI 287 288 TL, MRK-560 1 μM, replicates
[21] = PS2 PI 287 288 TL, MRK-560 10 μM, replicates
[22] = PS2 PI 287 288 TL, MRK-560 20 μM, replicates

## O=S(=O)(NC1CCC(c2cc(F)ccc2F)(S(=O)(=O)c2ccc(Cl)cc2)CC1)C(F)(F)F (stereo not drawn) [MRK-560, N-[cis-4-[(4-chlorophenyl)sulfonyl]-4-(2,5-difluorophenyl)cyclohexyl]-1,1,1-trifluoromethanesulfonamide]
[1]; [5]
  remaining activity at 0.002 µM: 86.9%
[1]; [6]
  remaining activity at 0.002 µM: 87.8%
[1]; [7]
  remaining activity at 0.04 µM: 68.9%
[1]; [8]
  remaining activity at 0.04 µM: 70.8%
[1]; [9]
  remaining activity at 0.2 µM: 33.9%
[1]; [10]
  remaining activity at 0.2 µM: 34.2%
[1]; [11]
  remaining activity at 1 µM: 8.68%
[1]; [12]
  remaining activity at 1 µM: 8.69%
[1]; [13]
  remaining activity at 10 µM: 1.62%
[1]; [14]
  remaining activity at 10 µM: 1.63%
[1]; MRK-560 20 μM, mean of 3 replicates, read-out: Normalized production (control=1), Mean
  remaining activity at 20 µM: 1.25%
[1]; MRK-560 20 μM, replicates, read-out: Normalized production (control=1)
  remaining activity at 20 µM: 1.14%
[1]; MRK-560 2 nM, replicates
  Caculated Aβ40 production: 520.0011 and 533.1358 and 528.5350
  raw data from α-Lisa reading: 78132 and 77549 and 76464
[1]; MRK-560 40 nM, replicates
  Caculated Aβ40 production: 419.8422 and 429.7041 and 404.1611
  raw data from α-Lisa reading: 64687 and 61254 and 63367
[1]; MRK-560 200 nM, replicates
  Caculated Aβ40 production: 203.3520 and 207.5605 and 206.0857
  raw data from α-Lisa reading: 33202 and 32980 and 32568
[1]; MRK-560 1 μM, replicates
  Caculated Aβ40 production: 52.1767 and 52.7609 and 53.0714
  raw data from α-Lisa reading: 8864 and 8915 and 8768
[1]; MRK-560 10 μM, replicates
  Caculated Aβ40 production: 9.7739 and 9.8808 and 9.9223
  raw data from α-Lisa reading: 1731 and 1738 and 1713
[1]; MRK-560 20 μM, replicates
  Caculated Aβ40 production: 7.8338 and 6.8972 and 8.0769
  raw data from α-Lisa reading: 1228 and 1427 and 1386
[1]; mean ± SD
  IC50: 106 ± 27 nM
[2]
  IC50: 55 ± 6 nM
[2]; [5]
  remaining activity at 0.002 µM: 99.3%
[2]; [6]
  remaining activity at 0.002 µM: 100%
[2]; [15]
  remaining activity at 0.01 µM: 92.8%
[2]; [16]
  remaining activity at 0.01 µM: 94.3%
[2]; [7]
  remaining activity at 0.04 µM: 62.2%
[2]; [8]
  remaining activity at 0.04 µM: 65.5%
[2]; [9]
  remaining activity at 0.2 µM: 10.6%
[2]; [10]
  remaining activity at 0.2 µM: 11%
[2]; [11]
  remaining activity at 1 µM: 1.23%
[2]; [12]
  remaining activity at 1 µM: 1.29%
[2]; [13]
  remaining activity at 10 µM: 0.61%
[2]; [14]
  remaining activity at 10 µM: 0.59%
[2]; MRK-560 2 nM, replicates
  Caculated Aβ40 production: 345.9981 and 336.9974 and 315.8225
  raw data from α-Lisa reading: 52003 and 49017 and 53262
[2]; MRK-560 10 nM, replicates
  Caculated Aβ40 production: 309.2203 and 316.1610 and 308.6161
  raw data from α-Lisa reading: 49065 and 47993 and 48079
[2]; MRK-560 40 nM, replicates
  Caculated Aβ40 production: 209.7683 and 219.6031 and 196.3837
  raw data from α-Lisa reading: 35008 and 31515 and 33534
[2]; MRK-560 200 nM, replicates
  Caculated Aβ40 production: 35.0895 and 36.8617 and 34.7461
  raw data from α-Lisa reading: 6240 and 5889 and 5946
[2]; MRK-560 1 μM, replicates
  Caculated Aβ40 production: 4.0253 and 4.3330 and 4.0016
  raw data from α-Lisa reading: 795 and 739 and 743
[2]; MRK-560 10 μM, replicates
  Caculated Aβ40 production: 2.0149 and 1.9676 and 2.1390
  raw data from α-Lisa reading: 395 and 424 and 403
[3]; PS2 PI 287 288 TL, MRK-560 2 nM, mean of 3 replicates, read-out: Normalized production (control=1), Mean
  remaining activity at 0.002 µM: 88.4%
[3]; PS2 PI 287 288 TL, MRK-560 2 nM, replicates, read-out: Normalized production (control=1)
  remaining activity at 0.002 µM: 89.8%
[3]; PS2 PI 287 288 TL, MRK-560 40 nM, mean of 3 replicates, read-out: Normalized production (control=1), Mean
  remaining activity at 0.04 µM: 38.7%
[3]; PS2 PI 287 288 TL, MRK-560 40 nM, replicates, read-out: Normalized production (control=1)
  remaining activity at 0.04 µM: 36.2%
[3]; PS2 PI 287 288 TL, MRK-560 200 nM, mean of 3 replicates, read-out: Normalized production (control=1), Mean
  remaining activity at 0.2 µM: 6.34%
[3]; PS2 PI 287 288 TL, MRK-560 200 nM, replicates, read-out: Normalized production (control=1)
  remaining activity at 0.2 µM: 6.66%
[3]; PS2 PI 287 288 TL, MRK-560 1 μM, mean of 3 replicates, read-out: Normalized production (control=1), Mean
  remaining activity at 1 µM: 1.64%
[3]; PS2 PI 287 288 TL, MRK-560 1 μM, replicates, read-out: Normalized production (control=1)
  remaining activity at 1 µM: 1.65%
[3]; PS2 PI 287 288 TL, MRK-560 10 μM, mean of 3 replicates, read-out: Normalized production (control=1), Mean
  remaining activity at 10 µM: 0.86%
[3]; PS2 PI 287 288 TL, MRK-560 10 μM, replicates, read-out: Normalized production (control=1)
  remaining activity at 10 µM: 0.88%
[3]; PS2 PI 287 288 TL, MRK-560 20 μM, mean of 3 replicates, read-out: Normalized production (control=1), Mean
  remaining activity at 20 µM: 1.37%
[3]; PS2 PI 287 288 TL, MRK-560 20 μM, replicates, read-out: Normalized production (control=1)
  remaining activity at 20 µM: 1.35%
[3]; [17]
  Caculated Aβ40 production: 622.5323 and 598.5358 and 618.8332
  raw data from α-Lisa reading: 89195 and 86274 and 88747
[3]; [18]
  Caculated Aβ40 production: 251.4190 and 280.0544 and 273.5511
  raw data from α-Lisa reading: 39722 and 43895 and 42953
[3]; [19]
  Caculated Aβ40 production: 46.1689 and 42.1835 and 43.6058
  raw data from α-Lisa reading: 7779 and 7121 and 7356
[3]; [20]
  Caculated Aβ40 production: 11.4428 and 11.3299 and 11.2705
  Normalized production (control=1): 0.0163
  raw data from α-Lisa reading: 1994 and 1975 and 1965
[3]; [21]
  Caculated Aβ40 production: 6.1091 and 5.7952 and 6.0025
  raw data from α-Lisa reading: 1095 and 1042 and 1077
[3]; [22]
  Caculated Aβ40 production: 9.3406 and 8.5277 and 10.7299
  raw data from α-Lisa reading: 1640 and 1503 and 1874
[3]; PS2 PI287-288TL, mean ± SD
  IC50: 25 ± 4 nM
[4]
  IC50: 90 ± 10 nM
[4]; [5]
  remaining activity at 0.002 µM: 111%
[4]; [6]
  remaining activity at 0.002 µM: 110%
[4]; [15]
  remaining activity at 0.01 µM: 108%
[4]; [16]
  remaining activity at 0.01 µM: 104%
[4]; [7]
  remaining activity at 0.04 µM: 83.5%
[4]; [8]
  remaining activity at 0.04 µM: 83.1%
[4]; [9]
  remaining activity at 0.2 µM: 28.8%
[4]; [10]
  remaining activity at 0.2 µM: 28.2%
[4]; [11]
  remaining activity at 1 µM: 3.17%
[4]; [12]
  remaining activity at 1 µM: 3.28%
[4]; [13]
  remaining activity at 10 µM: 0.83%
[4]; [14]
  remaining activity at 10 µM: 0.9%
[4]; MRK-560 2 nM, replicates
  Caculated Aβ40 production: 281.9088 and 286.0465 and 285.6579
  raw data from α-Lisa reading: 44163 and 44760 and 44704
[4]; MRK-560 10 nM, replicates
  Caculated Aβ40 production: 268.0187 and 289.2618 and 277.4973
  raw data from α-Lisa reading: 42149 and 45223 and 43525
[4]; MRK-560 40 nM, replicates
  Caculated Aβ40 production: 213.5518 and 216.6350 and 213.7318
  raw data from α-Lisa reading: 34102 and 34564 and 34129
[4]; MRK-560 200 nM, replicates
  Caculated Aβ40 production: 72.5045 and 76.2274 and 73.8042
  raw data from α-Lisa reading: 12089 and 12693 and 12300
[4]; MRK-560 1 μM, replicates
  Caculated Aβ40 production: 8.4328 and 8.0651 and 7.9702
  raw data from α-Lisa reading: 1487 and 1425 and 1409
[4]; MRK-560 10 μM, replicates
  Caculated Aβ40 production: 2.3045 and 1.9913 and 2.1331
  raw data from α-Lisa reading: 452 and 399 and 423

Source: PMC9587990, “Molecular basis for isoform-selective inhibition of presenilin-1 by MRK-560” (Nature Communications, 2022)
